In patent US20030060498A1, “5-arylsulfonyl indoles useful for treating disease” (priority 2001, published 2003):
Counter-ions that a name gives are not always drawn. Like-named read-outs stand apart in the source and are kept apart here.

Experiments:
[1] = target: T1, cloned human 5-HT6 receptor (Homo sapiens, UniProt P50406); assay: 5-HT6 receptor binding assay ([3H]-LSD radioligand, SPA beads)
T1 construct: host or cells: HeLa cells (G-418 selection); membrane preparation
Method: 5-HT6 Receport Binding Assay
Growth of Cells and Membrane Preparation:
Hela cells containing the cloned human 5-HT6 receptor were acquired from Dr. David R. Sibley's laboratory in National Institute of Health (see Sibley, D. R., J. Neurochemistry, 66, 47-56, 1996). Cells were grown in high glucose Dulbecco's modified Eagle's medium, supplemented with L-glutamine, 0.5% sodium pyruvate, 0.3% penicillin-streptomycin, 0.025% G-418 and 5% Gibco fetal bovine serum and then were harvested, when confluent, in cold phosphate buffered saline.
Harvested intact cells were washed once in cold phosphate-buffered saline. The cells were pelleted and resuspended in 100 ml of cold 50 mM Tris, 5 mM EDTA and 5 mM EGTA, pH 7.4. Homogenization was with a Vir Tishear generator, 4 cycles for 30 seconds each at setting 50. The homogenized cells were centrifuged at […] for 10 minutes and the supernatant was removed. The pellet was resuspended in 100 ml of the above buffer and rehomogenized for 2 cycles. The rehomogenized cells were then centrifuged at […] for 10 minutes and the supernatant was removed. The combined supernatant (200ml) was centrifuged at 23,000 RPM (80,000×g) for 1 hour in a Beckman Rotor (42.1 Ti). The membrane pellet was resuspended in […] of assay buffer containing HEPES 20 mM, MgCl2 10 mM, NaCl 150 mM, EDTA 1 mM, pH 7.4 and stored frozen in aliqouts at −70° C.
5-HT6 Receptor Binding Assay
The radioligand binding assay used [^3H]-lysergic acid diethylamide (LSD). The assay was carried out in Wallac 96-well sample plates by the addition of 11 μl of the test sample at the appropriate dilution (the assay employed 11 serial concentrations of samples run in duplicate), 11 μl of radioligand, and 178 μl of a washed mixture of WGA-coated SPA beads and membranes in binding buffer. The plates were shaken for about 5 minutes and then incubated at room temperature for 1 hour. The plates were then loaded into counting cassettes and counted in a Wallac MicroBeta Trilux scintillation counter.
Binding Constant (Ki) Determination
Eleven serial dilutions of test compounds were distributed to assay plates using the PE/Cetus Pro/Pette pipetter. These dilutions were, followed by radioligand and the bead-membrane mixture prepared as described above. The specifically bound cpm obtained were fit to a one-site binding model using GraphPad Prism ver. 3.0. Estimated IC50 values were converted to Ki values using the Cheng-Prusoff equation (Cheng, Y. C. et al., Biochem. Pharmacol., 22, 3099-108, 1973).

T1 sequence (P50406 whole entry): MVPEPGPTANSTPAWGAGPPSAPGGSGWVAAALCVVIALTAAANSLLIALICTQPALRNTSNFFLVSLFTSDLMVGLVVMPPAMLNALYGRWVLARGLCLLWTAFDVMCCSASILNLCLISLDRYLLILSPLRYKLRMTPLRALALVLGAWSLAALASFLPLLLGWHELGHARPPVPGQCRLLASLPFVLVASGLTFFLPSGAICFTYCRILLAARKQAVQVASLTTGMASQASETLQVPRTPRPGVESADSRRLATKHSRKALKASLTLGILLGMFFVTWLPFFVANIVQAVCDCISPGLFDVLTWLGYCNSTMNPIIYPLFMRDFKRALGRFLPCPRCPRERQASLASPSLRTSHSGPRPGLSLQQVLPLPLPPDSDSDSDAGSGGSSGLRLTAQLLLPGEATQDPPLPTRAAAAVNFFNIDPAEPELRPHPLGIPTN

Row | Ki ([1]; [3H]-LSD, membranes of Hela cells containing the cloned human 5-HT6 receptor, IC50 converted by Cheng-Prusoff, average, read-out: Ki) | SMILES | melting point | Ki [1]
1 |  | CNCCc1c(C)n(C)c2ccc(S(=O)(=O)c3cccc4ccccc34)cc12.Cl | > 141 °C (dec.) | 
2 |  | Cc1[nH]c2ccc(S(=O)(=O)c3cccc4ccccc34)cc2c1CCN (as salt: hydrochloride) [Example 21, 2-[2-methyl-5-(1-naphthylsulfonyl)-1H-indol-3-yl]ethanamine Hydrochloride] | > 280 °C | 
3 |  | Cl.Cn1cc(CCN)c2cc(S(=O)(=O)c3ccccc3)ccc21 [Example 1, 2-[1-methyl-5-(phenylsulfonyl)-1H-indol-3-yl]ethanamine Hydrochloride] | 285.3 to 292 °C | 1.5 nM
4 |  | Cc1[nH]c2ccc(S(=O)(=O)c3ccccc3)cc2c1CCN.Cl [Example 2, 2-[2-methyl-5-(phenylsulfonyl)-1H-indol-3-yl]ethanamine Hydrochloride] | > 280 °C | 38 nM
5 |  | CNCCc1c(C)[nH]c2ccc(S(=O)(=O)c3ccccc3)cc12 [Example 3, N-methyl-2-[2-methyl-5-(phenylsulfonyl)-1H-indol-3-yl]ethanamine] | 164.6 to 166 °C | 37 nM
6 |  | Cc1c(CCN)c2cc(S(=O)(=O)c3ccccc3)ccc2n1C.Cl [Example 4, 2-[1,2-dimethyl-5-(phenylsulfonyl)-1H-indol-3-yl]ethanamine Hydrochloride] | 155 to 158.3 °C | 4 nM
7 |  | CNCCc1c(C)n(C)c2ccc(S(=O)(=O)c3ccccc3)cc12.Cl [Example 5, 2-[1,2-dimethyl-5-(phenylsulfonyl)-1H-indol-3-yl]-N-methylethanamine Hydrochloride] | 266.8 to 268.2 °C | 9 nM
8 |  | Cc1c(CCN(C)C)c2cc(S(=O)(=O)c3ccccc3)ccc2n1C [Example 6, 2-[1,2-dimethyl-5-(phenylsulfonyl)-1H-indol-3-yl]-N,N-dimethylethanamine] | 169.6 to 171.9 °C | 1.8 nM
9 |  | Cc1ccc(S(=O)(=O)c2ccc3c(c2)c(CCN)cn3C)cc1.Cl [Example 7, 2-{1-methyl-5-[(4-methylphenyl)sulfonyl]-1H-indol-3-yl}ethanamine Hydrochloride] | 186.3 to 190.2 °C | 3.3 nM
10 |  | CNCCc1cn(C)c2ccc(S(=O)(=O)c3ccc(C)cc3)cc12.Cl [Example 8, N-methyl-2-{1-methyl-5-[(4-methylphenyl)sulfonyl]-1H-indol-3-yl}ethanamine hydrochloride] | 275 to 277.6 °C | 7.6 nM
11 |  | Cc1ccc(S(=O)(=O)c2ccc3[nH]c(C)c(CCN)c3c2)cc1.Cl [Example 9, 2-{2-methyl-5-[(4-methylphenyl)sulfonyl]-1H-indol-3-yl}ethanamine Hydrochloride] | > 275 °C | 308 nM
12 |  | Cc1ccc(S(=O)(=O)c2ccc3c(c2)c(CCN)c(C)n3C)cc1.Cl [Example 10, 2-{1,2-dimethyl-5-[(4-methylphenyl)sulfonyl]-1H-indol-3-yl}ethanamine Hydrochloride] | 168 to 172 °C | 22 nM
13 |  | CNCCc1c(C)n(C)c2ccc(S(=O)(=O)c3ccc(C)cc3)cc12.Cl [Example 11, 2-{1,2-dimethyl-5-[(4-methylphenyl)sulfonyl]-1H-indol-3-yl}-N-methylethanamine Hydrochloride] | 259.7 to 262.3 °C | 15 nM
14 | 146 nM | Cc1[nH]c2ccc(S(=O)(=O)c3ccc(C(F)(F)F)cc3)cc2c1CCN.Cl [Example 12, 2-(2-methyl-5-{[4-(trifluoromethyl)phenyl]sulfonyl}-1H-indol-3-yl)ethanamine Hydrochloride] | > 275 °C | 
15 |  | Cc1c(CCN)c2cc(S(=O)(=O)c3ccc(C(F)(F)F)cc3)ccc2n1C.Cl [Example 13, 2-(1,2-dimethyl-5-{[4-(trifluoromethyl)phenyl]sulfonyl}-1H-indol-3-yl)ethanamine Hydrochloride] | > 280 °C | 36 nM
16 |  | CNCCc1c(C)n(C)c2ccc(S(=O)(=O)c3ccc(C(F)(F)F)cc3)cc12.Cl [Example 14, 2-(1,2-dimethyl-5-{[4-(trifluoromethyl)phenyl]sulfonyl}-1H-indol-3-yl)-N-methylethanamine Hydrochloride] | 189.1 to 193.7 °C | 18 nM
17 |  | COc1cccc(S(=O)(=O)c2ccc3[nH]c(C)c(CCN)c3c2)c1.Cl [Example 15, 2-{5-[(3-methoxyphenyl)sulfonyl]-2-methyl-1H-indol-3-yl}ethanamine Hydrochloride] | 300 to 302 °C | 209 nM
18 |  | COc1cccc(S(=O)(=O)c2ccc3c(c2)c(CCN)c(C)n3C)c1.Cl [Example 16, 2-{5-[(3-methoxyphenyl)sulfonyl]-1,2-dimethyl-1H-indol-3-yl}ethanamine Hydrochloride] | 269.5 to 272.4 °C | 3.4 nM
19 |  | CNCCc1c(C)n(C)c2ccc(S(=O)(=O)c3cccc(OC)c3)cc12.Cl [Example 17, 2-{5-[(3-methoxyphenyl)sulfonyl]-1,2-dimethyl-1H-indol-3-yl}-N-methylethanamine Hydrochloride] | 192.4 to 196 °C | 10 nM
20 |  | Cc1[nH]c2ccc(S(=O)(=O)c3cc(F)cc(F)c3)cc2c1CCN.Cl [Example 18, 2-{5-[(3,5-difluorophenyl)sulfonyl]-2-methyl-1H-indol-3-yl}ethanamine Hydrochloride] | > 280 °C | 66 nM
21 |  | Cc1c(CCN)c2cc(S(=O)(=O)c3cc(F)cc(F)c3)ccc2n1C.Cl [Example 19, 2-{5-[(3,5-difluorophenyl)sulfonyl]-1,2-dimethyl-1H-indol-3-yl}ethanamine Hydrochloride] | 288.6 to 290.5 °C | 5.6 nM
22 |  | CNCCc1c(C)n(C)c2ccc(S(=O)(=O)c3cc(F)cc(F)c3)cc12.Cl [Example 20, 2-{5-[(3,5-difluorophenyl)sulfonyl]-1,2-dimethyl-1H-indol-3-yl}-N-methylethanamine Hydrochloride] | 253.5 to 257.8 °C | 4.6 nM
23 |  | Cc1[nH]c2ccc(S(=O)(=O)c3cccc4ccccc34)cc2c1CCN [Example 21, 2-[2-methyl-5-(1-naphthylsulfonyl)-1H-indol-3-yl]ethanamine Hydrochloride] |  | 0.9 nM
24 |  | Cc1c(CCN)c2cc(S(=O)(=O)c3cccc4ccccc34)ccc2n1C.Cl [Example 22, 2-[1,2-dimethyl-5-(1-naphthylsulfonyl)-1H-indol-3-yl]ethanamine Hydrochloride] | > 175 °C (dec.) | 3.1 nM
